Measurements as given in ChEMBL document CHEMBL5329155, “Synthesis and pharmacological evaluation of 1,3-diaryl substituted pyrazole based (thio)urea derivatives as potent antimicrobial agents against multi-drug resistant Staphylococcus aureus and Mycobacterium tuberculosis” (RSC Med Chem, 2023).
In brackets after ≈: the same amount, converted by molar mass.

Assays:
Assay type in all cases: functional
[1] = tested on: Mycobacterium tuberculosis; test: Antimycobacterial activity against Mycobacterium tuberculosis H37Rv ATCC 27294 assessed as inhibition of bacterial growth incubated for 18 to 24 hrs by broth dilution method
[2] = tested on: Staphylococcus aureus; test: Antibacterial activity against Staphylococcus aureus ATCC 29213 assessed as inhibition of bacterial growth measured for 18 to 24 hrs by broth dilution method; conditions: time 18-24 hrs
[3] = tested on: Mycobacterium tuberculosis; test: Antimycobacterial activity against isoniazid-resisitant Mycobacterium tuberculosis ATCC 35822 assessed as inhibition of bacterial growth incubated for 18 to 24 hrs by broth dilution method; conditions: time 18-24 hrs
[4] = tested on: Mycobacterium tuberculosis; test: Antimycobacterial activity against ethambutol-resisitant Mycobacterium tuberculosis ATCC 35837 assessed as inhibition of bacterial growth incubated for 18 to 24 hrs by broth dilution method; conditions: time 18-24 hrs
[5] = tested on: Mycobacterium tuberculosis; test: Antimycobacterial activity against streptomycin-resisitant Mycobacterium tuberculosis ATCC 35820 assessed as inhibition of bacterial growth incubated for 18 to 24 hrs by broth dilution method; conditions: time 18-24 hrs
[6] = tested on: Mycobacterium tuberculosis; test: Antimycobacterial activity against rifampicin-resisitant Mycobacterium tuberculosis ATCC 35838 assessed as inhibition of bacterial growth incubated for 18 to 24 hrs by broth dilution method; conditions: time 18-24 hrs
[7] = tested on: Mycobacterium tuberculosis; test: Antimycobacterial activity against Mycobacterium tuberculosis H37Rv assessed as reduction in bacterial growth
[8] = tested on: Staphylococcus aureus; test: Antibacterial activity against methicillin/ceftriaxone/meropenem/vancomycin/teicoplanin resistant Staphylococcus aureus VRS 12 assessed as reduction in bacterial growth incubated for 18 to 24 hrs by broth dilution method; conditions: time 18-24 hrs
[9] = tested on: Staphylococcus aureus; test: Antibacterial activity against methicillin/ceftriaxone/meropenem/vancomycin/teicoplanin resistant Staphylococcus aureus VRS 4 assessed as reduction in bacterial growth incubated for 18 to 24 hrs by broth dilution method; conditions: time 18-24 hrs
[10] = tested on: Staphylococcus aureus; test: Antibacterial activity against methicillin/ceftriaxone/meropenem/gentamycin/vancomycin/teicoplanin resistant Staphylococcus aureus VRS 1 assessed as reduction in bacterial growth incubated for 18 to 24 hrs by broth dilution method; conditions: time 18-24 hrs

Row | Compound | MIC [1] [µg/mL] | MIC [2] [µg/mL] | further results
1 | COc1ccc(-c2ccn(-c3ccc(NC(=O)Nc4ccc(C)c(Cl)c4)cc3)n2)cc1OC | 4 (≈ 8.64 µM) | > 64 | 
2 | CN[C@@H]1[C@H](O[C@H]2[C@H](O[C@H]3[C@H](O)[C@@H](O)[C@H](N=C(N)N)[C@@H](O)[C@@H]3N=C(N)N)O[C@@H](C)[C@]2(O)C=O)O[C@@H](CO)[C@H](O)[C@H]1O [STREPTOMYCIN] | 1 (≈ 1.72 µM) |  | MIC [3]: 1 µg/mL (≈ 1.72 µM); MIC [4]: 1 µg/mL (≈ 1.72 µM); MIC [5]: > 64 µg/mL; MIC [6]: 1 µg/mL (≈ 1.72 µM)
3 | COc1cc(-c2ccn(-c3ccc(NC(=O)Nc4ccc(F)cc4F)cc3)n2)cc(OC)c1OC | 8 (≈ 16.7 µM) | > 64 | 
4 | Cc1ccc(-c2ccn(-c3ccc(NC(=O)Nc4ccc(Cl)c(Cl)c4)cc3)n2)cc1 | > 64 | > 64 | 
5 | COc1ccc(-c2cn(-c3ccc(NC(=O)NCc4ccccc4)cc3)nn2)cc1OC | 16 (≈ 37.3 µM) | > 64 | 
6 | CC[C@@H](CO)NCCN[C@@H](CC)CO [ETHAMBUTOL] | 2 (≈ 9.79 µM) |  | MIC [3]: 4 µg/mL (≈ 19.6 µM); MIC [4]: 32 µg/mL (≈ 157 µM); MIC [5]: 2 µg/mL (≈ 9.79 µM); MIC [6]: 2 µg/mL (≈ 9.79 µM)
7 | COc1ccc(-c2ccn(-c3ccc(NC(=S)Nc4ccc(C)cc4)cc3)n2)cc1OC | 64 (≈ 144 µM) | > 64 | 
8 | O=C(Nc1ccc(-n2ccc(-c3ccccc3)n2)cc1)Nc1ccc(F)cc1F | > 64 | > 64 | 
9 | COc1ccc(-c2ccn(-c3ccc(NC(=S)NCc4ccccc4)cc3)n2)cc1OC | 8 (≈ 18 µM) | > 64 | 
10 | COc1ccc(-c2cn(-c3ccc(NC(=O)Nc4ccc(Cl)c(Cl)c4)cc3)nn2)cc1OC | > 64 | 4 (≈ 8.26 µM) | 
11 | COc1ccc(-c2ccn(-c3ccc(NC(=O)Nc4ccccc4)cc3)n2)cc1OC | 8 (≈ 19.3 µM) | > 64 | 
12 | COc1ccc(-c2ccn(-c3ccc(NC(=S)Nc4cccc(Br)c4)cc3)n2)cc1OC | 16 (≈ 31.4 µM) | 64 (≈ 126 µM) | 
13 | O=C(Nc1ccc(-n2ccc(-c3cccnc3)n2)cc1)Nc1ccc(Cl)c(Cl)c1 | 16 (≈ 37.7 µM) | > 64 | 
14 | COc1ccc(-c2nn(-c3ccc(Cl)cc3)cc2Cn2cncn2)cc1 |  |  | MIC [7]: 4.4 µg/mL (≈ 12 µM)
15 | COc1ccc(-c2ccn(-c3ccc(NC(=O)Nc4cccc(Cl)c4)cc3)n2)cc1OC | 16 (≈ 35.6 µM) | 2 (≈ 4.46 µM) | 
16 | COc1ccccc1NC(=O)Nc1ccc(-n2ccc(-c3ccc(OC)c(OC)c3)n2)cc1 | 32 (≈ 72 µM) | > 64 | 
17 | COc1ccc(-c2ccn(-c3ccc(NC(=S)Nc4cccc(Cl)c4)cc3)n2)cc1OC | 16 (≈ 34.4 µM) | > 64 | 
18 | COc1ccc(-c2ccn(-c3ccc(NC(=S)Nc4ccc(C(F)(F)F)cc4)cc3)n2)cc1OC | 2 (≈ 4.01 µM) | 2 (≈ 4.01 µM) | 
19 | O=C(NCc1ccccc1)Nc1ccc(-n2ccc(-c3ccc(Cl)cc3Cl)n2)cc1 | 64 (≈ 146 µM) | > 64 | 
20 | CO[C@H]1/C=C/O[C@@]2(C)Oc3c(C)c(O)c4c(O)c(c(/C=N/N5CCN(C)CC5)c(O)c4c3C2=O)NC(=O)/C(C)=C\C=C\[C@H](C)[C@H](O)[C@@H](C)[C@@H](O)[C@@H](C)[C@H](OC(C)=O)[C@@H]1C [RIFAMPIN] | 0.06 (≈ 0.0729 µM) |  | MIC [3]: 0.03 µg/mL (≈ 0.0365 µM); MIC [4]: 0.03 µg/mL (≈ 0.0365 µM); MIC [5]: 0.03 µg/mL (≈ 0.0365 µM); MIC [6]: 64 µg/mL (≈ 77.8 µM)
21 | COc1cc(-c2ccn(-c3ccc(NC(=O)Nc4ccc(Cl)c(Cl)c4)cc3)n2)cc(OC)c1OC | > 64 | > 64 | 
22 | COc1ccc(-c2ccn(-c3ccc(NC(=O)Nc4cccc(Cl)c4Cl)cc3)n2)cc1OC | 16 (≈ 33.1 µM) | > 64 | 

Row | Compound | MIC [1] [µg/mL] | MIC [2] [µg/mL] | further results
23 | COc1ccc(-c2ccn(-c3ccc(NC(=S)Nc4ccccc4)cc3)n2)cc1OC | 8 (≈ 18.6 µM) | > 64 | 
24 | COc1ccc(-c2ccn(-c3ccc(NC(=S)Nc4cccc5ccccc45)cc3)n2)cc1OC | 16 (≈ 33.3 µM) | > 64 | 
25 | CCCCCCCNC(=S)Nc1ccc(-n2ccc(-c3ccc(OC)c(OC)c3)n2)cc1 | 4 (≈ 8.84 µM) | > 64 | 
26 | COc1ccc(-c2ccn(-c3ccc(NC(=O)Nc4c(C)cccc4C)cc3)n2)cc1OC | > 64 | > 64 | 
27 | NNC(=O)c1ccncc1 [ISONIAZID] | 0.03 (≈ 0.219 µM) |  | MIC [3]: > 64 µg/mL; MIC [4]: 0.03 µg/mL (≈ 0.219 µM); MIC [5]: 0.03 µg/mL (≈ 0.219 µM); MIC [6]: 0.03 µg/mL (≈ 0.219 µM)
28 | COc1cccc(NC(=S)Nc2ccc(-n3ccc(-c4ccc(OC)c(OC)c4)n3)cc2)c1 | 16 (≈ 34.7 µM) | > 64 | 
29 | COc1ccc(-c2ccn(-c3ccc(NC(=S)Nc4ccc(F)c(Cl)c4)cc3)n2)cc1OC | 16 (≈ 33.1 µM) | > 64 | 
30 | COc1ccc(-c2ccn(-c3ccc(NC(=S)Nc4cc(C(F)(F)F)cc(C(F)(F)F)c4)cc3)n2)cc1OC | 16 (≈ 28.2 µM) | 1 (≈ 1.77 µM) | 
31 | COc1ccc(-c2ccn(-c3ccc(NC(=S)Nc4ccc([N+](=O)[O-])cc4)cc3)n2)cc1OC | 16 (≈ 33.6 µM) | > 64 | 
32 | COc1ccc(-c2ccn(-c3ccc(NC(=O)Nc4cc(Cl)ccc4Cl)cc3)n2)cc1OC | > 64 | > 64 | 
33 | Cc1ccc(-c2ccn(-c3ccc(NC(=O)Nc4ccc(F)cc4F)cc3)n2)cc1 | > 64 | > 64 | 
34 | O=C(Nc1ccc(-n2ccc(-c3ccccc3)n2)cc1)Nc1ccc(Cl)c(Cl)c1 | 64 (≈ 151 µM) | > 64 | 
35 | Cc1ccc(-c2ccn(-c3ccc(NC(=O)NCc4ccccc4)cc3)n2)cc1 | > 64 | > 64 | 
36 | O=C(NCc1ccccc1)Nc1ccc(-n2ccc(-c3cccnc3)n2)cc1 | 8 (≈ 21.7 µM) | > 64 | 
37 | O=C(NCc1ccccc1)Nc1ccc(-n2ccc(-c3ccc(Cl)cc3)n2)cc1 | > 64 | > 64 | 
38 | O=C(Nc1ccc(-n2ccc(-c3cccnc3)n2)cc1)Nc1ccc(F)cc1F | 8 (≈ 20.4 µM) | > 64 | 
39 | O=C(NCc1ccccc1)Nc1ccc(-n2ccc(-c3ccccc3)n2)cc1 | > 64 | > 64 | 
40 | O=C(Nc1ccc(-n2ccc(-c3ccc4ccccc4c3)n2)cc1)Nc1ccc(F)cc1F | > 64 | > 64 | 
41 | COc1ccc(NC(=S)Nc2ccc(-n3ccc(-c4ccc(OC)c(OC)c4)n3)cc2)c(OC)c1 | 32 (≈ 65.2 µM) | > 64 | 
42 | O=C(Nc1ccc(-n2ccc(-c3ccc(Cl)cc3)n2)cc1)Nc1ccc(Cl)c(Cl)c1 | 8 (≈ 17.5 µM) | > 64 | 
43 | COc1ccc(-c2ccn(-c3ccc(NC(=O)Nc4ccccc4C)cc3)n2)cc1OC | 16 (≈ 37.3 µM) | > 64 | 
44 | COc1ccc(-c2ccn(-c3ccc(NC(=S)Nc4ccc(Cl)cc4)cc3)n2)cc1OC | 8 (≈ 17.2 µM) | > 64 | 

Row | Compound | MIC [1] [µg/mL] | MIC [2] [µg/mL] | further results
45 | COc1ccc(-c2ccn(-c3ccc(NC(=S)Nc4ccc(C#N)cc4)cc3)n2)cc1OC | 32 (≈ 70.2 µM) | > 64 | 
46 | COc1ccc(-c2ccn(-c3ccc(NC(=S)Nc4cc(C)cc(C)c4)cc3)n2)cc1OC | 8 (≈ 17.4 µM) | > 64 | 
47 | CN[C@H](CC(C)C)C(=O)N[C@H]1C(=O)N[C@@H](CC(N)=O)C(=O)N[C@H]2C(=O)N[C@H]3C(=O)N[C@H](C(=O)N[C@H](C(=O)O)c4cc(O)cc(O)c4-c4cc3ccc4O)[C@H](O)c3ccc(c(Cl)c3)Oc3cc2cc(c3O[C@@H]2O[C@H](CO)[C@@H](O)[C@H](O)[C@H]2O[C@H]2C[C@](C)(N)[C@H](O)[C@H](C)O2)Oc2ccc(cc2Cl)[C@H]1O [VANCOMYCIN] |  |  | MIC [8]: > 64 µg/mL; MIC [9]: > 64 µg/mL; MIC [10]: > 64 µg/mL
48 | COc1ccc(-c2ccn(-c3ccc(NC(=O)Nc4ccc(F)cc4F)cc3)n2)cc1 | 8 (≈ 19 µM) | > 64 | 
49 | COc1ccc(-c2ccn(-c3ccc(NC(=S)Nc4ccc(F)cc4)cc3)n2)cc1OC | 2 (≈ 4.46 µM) | > 64 | 
50 | COc1ccc(-c2ccn(-c3ccc(NC(=O)Nc4cccc(C(F)(F)F)c4)cc3)n2)cc1OC | 8 (≈ 16.6 µM) | > 64 | 
51 | COc1ccc(-c2ccn(-c3ccc(NC(=O)Nc4ccc(Cl)c(Cl)c4)cc3)n2)cc1 | 32 (≈ 70.6 µM) | > 64 | 
52 | COc1ccc(NC(=S)Nc2ccc(-n3ccc(-c4ccc(OC)c(OC)c4)n3)cc2)cc1 | 8 (≈ 17.4 µM) | > 64 | 
53 | O=C(Nc1ccc(-n2ccc(-c3ccc(Cl)cc3Cl)n2)cc1)Nc1ccc(F)cc1F | > 64 | > 64 | 
54 | O=C(Nc1ccc(-n2ccc(-c3ccc4ccccc4c3)n2)cc1)Nc1ccc(Cl)c(Cl)c1 | 64 (≈ 135 µM) | > 64 | 
55 | O=C(Nc1ccc(-n2ccc(-c3ccc(Cl)cc3)n2)cc1)Nc1ccc(F)cc1F | > 64 | > 64 | 
56 | COc1ccc(-c2ccn(-c3ccc(NC(=O)NCc4ccccc4)cc3)n2)cc1 | > 64 | > 64 | 
57 | COc1ccc(-c2ccn(-c3ccc(NC(=O)Nc4ccc(Cl)c(C(F)(F)F)c4)cc3)n2)cc1OC | 4 (≈ 7.74 µM) | 2 (≈ 3.87 µM) | 
58 | O=C(NCc1ccccc1)Nc1ccc(-n2ccc(-c3ccc4ccccc4c3)n2)cc1 | 64 (≈ 153 µM) | > 64 | 
59 | COc1ccc(-c2ccn(-c3ccc(NC(=O)Nc4ccc(Cl)cc4Cl)cc3)n2)cc1OC | 16 (≈ 33.1 µM) | > 64 | 
60 | COc1ccc(-c2cn(-c3ccc(NC(=O)Nc4ccc(F)cc4F)cc3)nn2)cc1OC | 8 (≈ 17.7 µM) | > 64 | 
61 | COc1ccc(-c2ccn(-c3ccc(NC(=O)NS(=O)(=O)c4ccccc4)cc3)n2)cc1OC | 16 (≈ 33.4 µM) | > 64 | 
62 | COc1ccc(-c2ccn(-c3ccc(NC(=O)Nc4cccc(F)c4)cc3)n2)cc1OC | 32 (≈ 74 µM) | > 64 | 
63 | O=C(Nc1ccc(-n2ccc(-c3ccc(Cl)cc3Cl)n2)cc1)Nc1ccc(Cl)c(Cl)c1 | > 64 | > 64 | 
64 | COc1ccc(-c2ccn(-c3ccc(NC(=S)NC4CCCCC4)cc3)n2)cc1OC | 16 (≈ 36.6 µM) | > 64 | 
65 | COc1ccc(-c2ccn(-c3ccc(NC(=S)Nc4ccc(F)cc4F)cc3)n2)cc1OC | 16 (≈ 34.3 µM) | > 64 | 
